How the values were obtained:
[1] = Stability of peptide in isotonic saline; type: physicochemical; conditions: 20° C. in isotonic saline
Procedure: Further, HIP2, may be stably stored for long periods of time.
HIP2, HIP1, HIP, controls and progenitor fractions were cultured over 10 days, according to standard protocol. Briefly, pancreata from adult human cadaveric organ donors were obtained through the local organ procurement organization. Islets were isolated according to established protocols described by Bonner-Weir and Jamal. (Bonner-Weir et al. Pediatric Diabetes: 2004; 5 (Suppl 2): 16-22. Jamal et al. Cell Death Differ. 2005 July; 12(7): 702-12). HIP2, HIP1, HIP and INGAP were synthesized by Bachem Bioscience, Malvern, Pa. and were quality tested by HPCL to be greater than 95% pure. Each peptide was provided in lyophilized powder and was resuspended in isotonic saline solution. Stock solutions were made so that only 1-2 ul aliquots were added to primary cell cultures to reach the final concentrations provided below. […] HPLC data confirmed that the peptides remained stable in the isotonic saline after the freeze/thaw cycles.

[2] = test system: streptozocin-induced diabetic mouse; experiment: Streptozocin-induced diabetic mouse (Example 6); type: in vivo
Description: The streptozocin-induced diabetic mouse is a convenient animal model of type 1 diabetes because researchers are able to chemically induce diabetes under controlled conditions rather than waiting for mice to become diabetic naturally or by forcing diabetes through prescribed obesity. Based on experience with the streptozocin model in the rat, a high degree of variability was anticipated for the induction of the disease in mice and therefore 60 mice were induced with streptozocin. Mice were injected intraperitoneally with streptozocin at 40 mg/kg in citrate buffer, pH4.5, on 5 consecutive days in an attempt to render them diabetic. A mouse was considered diabetic once its blood glucose level was greater than 16.7 mmol/L (300 mg/dL) for at least 1 week. If the blood glucose level of any animal became too high (>400 mg/dL) the animal was treated with an effective amount of insulin. In this example, 60 male mice, ranging from 6-8 weeks old at the outset of the study, were treated with streptozocin as described above. Those mice that were declared diabetic were then used to test the effectiveness of HIP2 as compared to other test agents.
Animals were group housed in compliance with the National Research Council “Guide for the Care and Use of Laboratory Animals”. The animals received 12 hours light/12 hours dark, except when room lights were turned on during the dark cycle to accommodate study procedures. Room temperature was maintained between 18 to 26° C. at all times. Relative humidity was maintained between 30-70% at all times. All animals were given access to Harlan Teklad Rodent Diet or equivalent and tap water via water bottle. Animals were allowed to acclimate to their new environment for a minimum of 7 days prior to first dosing.
Mice were randomly divided and assigned to study groups. Each study group was assigned treatment with one of 5 test agents (see Treatment section below). Prior to being treated, each mouse was tested for diabetes via monitoring their blood glucose levels. After confirmation that the mice were diabetic (blood glucose levels greater than 16.7 mmol/L (300 mg/dL) for at least 1 week) the mice were dosed with their respective test agent.
Each study group received doses of one of the following test agents: HIP2, HIP1, HIP, Hamster INGAP (SEQ ID NO:1) or isotonic saline “Vehicle” (0.9% NaCl) (negative control). Mice were given doses of their respective agent interperitoneally twice daily (am and pm, +/−2 hours for each administration) at 250 ug/dose, in 100 ul dose volume, for 28 consecutive days. Test agents were prepared once daily by dissolving the appropriate amount of test agent in isotonic saline to result in a 2.5 mg/ml solution. Blood glucose levels were tested every 3 days, at the same time each day, using a glucometer. If the blood glucose level in any animal became too high, the animal was treated with insulin. At the end of the treatment, all surviving animals were euthanized by CO2 asphyxiation following terminal blood collection. Blood samples were collected under CO2 cardiocentesis. The plasma was separated and then frozen at −80° C. For histological analysis, the pancreas from each mouse was removed and snap-frozen.
Blood glucose levels are measured every 3 days and tracked to evaluate differences in glucose levels.

[3] = test system: human pancreatic progenitor cells; experiment: Inverted microscopy of human ductal/progenitor tissue cultures (Example 4); type: cell-based
[4] = streptozocin mice, 250 ug/dose i.p. twice daily, 28 days, vs other test agents

Substance: HIP2: Human proIslet Peptide, fragment of human REG3A, in purified, synthetic, or recombinant form (SEQ ID NO:4) (IGLHDPTQGTEPNG; Fragment of naturally occurring human REG3 protein)
- storage stability [1]: stable for months
- time at which mice were completely insulin-free [2]: ≤ 21 days
- glucose levels from baseline compared with control ([2]; streptozocin mice): significant reduction
- blood glucose levels [2, 4]: pronounced reduction
- insulinitis in the pancreas [2, 4]: decreased showing of insulinitis
- insulin requirements (and rate of decrease) ([2]; streptozocin mice, compared to placebo): Significant reductions
- morphology of ductal tissue culture fraction (FIG. 4) ([3]; after treatment, just before lysis and RIA): Morphological changes show islet like structure
- morphology of progenitor tissue cultures (FIG. 7A) ([3]; day 2 of treatment (day 12)): starting to bud at one end where a progenitor cell resides
- morphology of progenitor tissue cultures (FIG. 7B) ([3]; day 6 of treatment (day 18)): darkening of the budding portion of the ductal epithelial cyst indicates the differentiation of cells
- islet structure formation (micrograph, FIG. 4A) ([3]; pancreatic ductal tissue fraction culture, six days of culture with peptide): New islet structure has formed

— patent US8785400B2, “Methods and compositions relating to islet cell neogenesis” (CureDM Group Holdings, LLC, priority 2006, dated 2014)
